{"source": "patent US12233130B2", "about": "“Covalently-modified steroid acid-peptides having enhanced stability and/or biological activity” (DEFENCE THERAPEUTICS INC., priority 2022, dated 2025)", "key": {"EL4 cells": {"tested_on": "EL4 cells", "test": "Endosomal escape: apoptosis assay with exogenous cytochrome C", "format": "cell-based", "conditions": "cytochrome C alone", "method": "Endosomal leakage was assessed using two different approaches; the first strategy utilizes the FRET sensor CCF4-AM, a β-lactamase substrate. Briefly, EL4 cells were treated with 1 μM CCF4-AM for 1 h followed by the addition of 10 mg/ml of β-lactamase in the presence or absence of CA-C-SV40 (at concentration of 190 μM) for 3 h at 37° ° C. The cells were then washed, and fresh media added for an incubation period of 16 h at 37° C. The loss of FRET signal between the coumarin (donor) and fluorescein (acceptor) fluorophores was quantified by flow cytometry. For the apoptosis assay, 10^5 EL4 cells were first supplemented with 10 mg/ml of exogenous rCyt-C for 6 h at 37° C. in the presence or absence of CA-C-SV40 (at a concentration of 190 μM). Once the incubation period completed, the cells were washed with ice cold PBS, then stained for Annexin-V according to manufacturer's instructions prior to analysis using BD FACS Diva on CANTOII.\nCytochrome C is a protein that is normally entrapped in the mitochondria but can be released upon intrinsic signaling known to trigger apoptosis. An experiment was designed where recombinant cytochrome C was added to EL4 cells either alone or in combination with CA-C-SV40 ([…]) (FIG. 3A)."}, "EL4 lymphoma": {"tested_on": "EL4 lymphoma", "test": "EL4 tumor model in vivo (tumor growth, survival)", "design": "species or system mice", "conditions": "highest tested dose (190 μM), every 48 h, 5 injections", "method": "Female C57BL/6 mice (n=10/group) received a SC injection of 5×10^5 EL4 cells at Day 0. […] For all depletion studies, antibodies were injected via the intraperitoneal route at days 0, 3 and 6 at a concentration of 200 μg/injection. Tumor size and animal survival for all of the above listed in vivo studies was followed thereafter using a digital caliber until reaching endpoints (ulceration or a tumor volume ≥1000 mm^3)."}, "[1]": {"tested_on": "EL4 lymphoma, B16 melanoma, E0771 breast cancer, CT-26 colon carcinoma, 4T1 breast cancer, MBA-MD-468, H460 and A549 lung cancer cells", "test": "Cytotoxicity screen of bile acid-SV40 conjugates (Annexin-V) on eight cancer cell lines", "format": "cell-based", "conditions": "190 μM, all eight tumor cell lines tested", "method": "Annexin-V staining percentage after treatment with different bile acid-SV40 conjugates (190 μM) is shown relative to live cancer cells (i.e., PBS treated cancer cells) by flow cytometry. Cancer cell lines tested were EL4 lymphoma, B16 melanoma, E0771 breast cancer, CT-26 colon carcinoma, 4T1 breast cancer, MBA-MD-468 triple-negative breast cancer, human H460 lung cancer, and human A549 lung cancer. […] SV40 alone was also tested as a negative control.\n(§1) Apoptosis analysis was conducted by flow-cytometry. Briefly, target cells were first treated then washed. Treated cells were then re-suspended in Annexin-V staining buffer prior to staining with Annexin-V and propidium iodine (PI). Fifteen minutes later, cells were washed prior to analysis using BD FACS™ Diva on CANTOII™."}, "EL4 lymphoma cells": {"tested_on": "EL4 lymphoma cells", "test": "Apoptosis analysis by flow cytometry (Annexin-V/PI)", "format": "cell-based", "method": "as §1"}, "[2]": {"test": "Stability testing (impurities by HPLC)", "format": "physicochemical", "conditions": "dimer vs monomer", "excerpt": "GMP synthesis of the CDCA-C-SV40 monomer yielded a white powder and the results of initial stability testing is summarized below:\nAs shown above, two main impurities were detected by HPLC relating to the reactivity of the free thiol group of the CDCA-C-SV40 monomer, namely impurities resulting from oxidation of the thiol group (Impurity A) and the formation an intermolecular disulfide bond via the thiol groups of two CDCA-C-SV40 monomers, producing a (CDCA-C-SV40)2 dimer (Impurity B).\nTo attempt to improve stability, the synthesis protocol of CDCA-C-SV40 was modified to produce the conjugate directly in its dimerized form (Impurity B). […] At 25° C., total impurities rose only slightly from 1.6% at Day 0 to 2.1% after 3 months. At 40° C., total impurities rose from 1.6% at Day 0 to 1.7% after 5 days, 2.4% after 10 days, and to 3.7% after 30 days."}, "[3]": {"tested_on": "4T1, EL4, CT-26, B16 and E0771 tumor cell lines", "test": "Cell death by flow cytometry on five tumor cell lines", "format": "cell-based", "conditions": "95 and 190 μM", "method": "as §1"}, "macrophages": {"tested_on": "macrophages", "test": "Apoptosis analysis by flow cytometry on normal cells", "format": "cell-based", "conditions": "190 μM", "method": "as §1"}, "[4]": {"tested_on": "mesenchymal stem cells (MSCs)", "test": "Apoptosis analysis by flow cytometry on normal cells", "format": "cell-based", "conditions": "190 μM", "method": "as §1"}, "[5]": {"tested_on": "bone marrow-derived dendritic cells (DCs)", "test": "Apoptosis analysis by flow cytometry on normal cells", "format": "cell-based, mouse", "conditions": "190 μM", "method": "Mouse bone marrow derived DCs (BMDCs) were generated by flushing the whole marrow from mouse femurs using RPMI™ 1640 supplemented with 10% fetal bovine serum (FBS), 50 U/mL Penicillin-Streptomycin, 2 mM L-glutamine, 10 mM HEPES, 1% MEM Non-essential Amino Acids, 1 mM Sodium Pyruvate, 0.5 mM β-mercaptoethanol. Following red blood cell lysis, cells were then cultured in media supplemented with 50 ng/ml murine recombinant GM-CSF. The media was changed on days 2, 4, 6 and 8. On day 9, the media was replaced to include recombinant murine GM-CSF and LPS from Escherichia coli 0111 (1 ng/mL) to stimulate DC maturation. Mature DCs were assessed by flow cytometry for their surface expression of CD3, CD19, NK1.1, CD11c, CD80, CD86, and I-A^b.\nas §1"}}, "note": "Positions of bridges follow the written chain, without caps; N, C: chain ends. Residues, ends and D or L forms follow the SMILES beside them. Chains are numbered I, II in the order given. *: point of attachment. Chenodeoxycholyl = C[C@H](CCC(=O)*)[C@H]1CC[C@H]2[C@@H]3[C@H](O)C[C@@H]4C[C@H](O)CC[C@]4(C)[C@H]3CC[C@]12C; Cholyl = C[C@H](CCC(=O)*)[C@H]1CC[C@H]2[C@@H]3[C@H](O)C[C@@H]4C[C@H](O)CC[C@]4(C)[C@H]3C[C@H](O)[C@]12C"}
{"compound": "cytochrome C: recombinant cytochrome C added to EL4 cells as cargo", "values": [{"measurement": "cell death", "setting": "EL4 cells", "value": "did not trigger cell death"}]}
{"compound": "CC[C@H](C)[C@H](NC(=O)[C@H](CCCNC(=N)N)NC(=O)[C@H](CCCCN)NC(=O)[C@H](CCSC)NC(=O)[C@H](CC(C)C)NC(=O)[C@H](Cc1c[nH]cn1)NC(=O)[C@@H](NC(=O)[C@@H](NC(=O)[C@H](Cc1ccc(O)cc1)NC(=O)CNC(=O)[C@H](C)NC(=O)[C@@H](NC(=O)[C@H](CCCCN)NC(=O)[C@H](CC(N)=O)NC(=O)[C@H](CCCNC(=N)N)NC(=O)[C@H](CC(C)C)NC(=O)[C@H](CCCCN)NC(=O)[C@H](CCCCN)NC(=O)[C@H](CO)NC(=O)[C@H](CS)NC(=O)CC[C@@H](C)[C@H]1CC[C@H]2[C@@H]3[C@H](O)C[C@@H]4C[C@H](O)CC[C@]4(C)[C@H]3C[C@H](O)[C@]12C)[C@@H](C)CC)C(C)C)[C@@H](C)O)C(=O)O", "note": "[CA-C-NLS3 RPS17] (Cholyl-CSKKLRNKIAGYVTHLMKRI-OH; N-terminus and C-terminus assumed)", "values": [{"measurement": "tumor growth", "setting": "EL4 lymphoma", "value": "significantly delayed tumor growth"}]}
{"compound": "CSCC[C@H](NC(=O)[C@H](CS)NC(=O)CC[C@@H](C)[C@H]1CC[C@H]2[C@@H]3[C@H](O)C[C@@H]4C[C@H](O)CC[C@]4(C)[C@H]3C[C@H](O)[C@]12C)C(=O)NCC(=O)N[C@@H](CCCNC(=N)N)C(=O)N[C@H](C(=O)N[C@@H](CCCNC(=N)N)C(=O)N[C@H](C(=O)N[C@@H](CCCCN)C(=O)N[C@H](C(=O)N[C@H](C(=O)N[C@@H](CCCCN)C(=O)N[C@@H](CCCCN)C(=O)N[C@@H](C)C(=O)N[C@@H](C)C(=O)NCC(=O)NCC(=O)O)C(C)C)[C@@H](C)O)[C@@H](C)O)C(C)C", "note": "[CA-C-NLS1 RPS17] (Cholyl-CMGRVRTKTVKKAAGG-OH; N-terminus and C-terminus assumed)", "values": [{"measurement": "tumor growth", "setting": "EL4 lymphoma", "value": "significantly delayed tumor growth"}]}
{"compound": "CC(C)[C@H](NC(=O)[C@H](CCCCN)NC(=O)[C@H](CCCNC(=N)N)NC(=O)[C@H](CCCCN)NC(=O)[C@H](CCCCN)NC(=O)[C@H](CCCCN)NC(=O)[C@@H]1CCCN1C(=O)CNC(=O)[C@H](Cc1ccc(O)cc1)NC(=O)CNC(=O)[C@H](CS)NC(=O)CC[C@@H](C)[C@H]1CC[C@H]2[C@@H]3[C@H](O)C[C@@H]4C[C@H](O)CC[C@]4(C)[C@H]3CC[C@]12C)C(=O)NCC(=O)NCC(=O)O", "note": "[CDCA-C-SV40] (Chenodeoxycholyl-CGYGPKKKRKVGG-OH)", "values": [{"measurement": "cytotoxic activity", "setting": "[1]", "value": 100, "unit": "%"}]}
{"compound": "CC(=O)N[C@@H](CS)C(=O)O", "note": "[NAC, N-acetylcysteine]", "values": [{"measurement": "rescue from CA-C-SV40-triggered cell death", "setting": "EL4 lymphoma cells; CA-C-SV40 at higher doses (IC100)", "value": "incomplete but significant blockade"}]}
{"compound": "CC(C)[C@H](NC(=O)[C@H](CCCCN)NC(=O)[C@H](CCCNC(=N)N)NC(=O)[C@H](CCCCN)NC(=O)[C@H](CCCCN)NC(=O)[C@H](CCCCN)NC(=O)[C@@H]1CCCN1C(=O)CNC(=O)[C@H](Cc1ccc(O)cc1)NC(=O)CNC(=O)[C@H](CSSC[C@H](NC(=O)CC[C@@H](C)[C@H]1CC[C@H]2[C@@H]3[C@H](O)C[C@@H]4C[C@H](O)CC[C@]4(C)[C@H]3CC[C@]12C)C(=O)NCC(=O)N[C@@H](Cc1ccc(O)cc1)C(=O)NCC(=O)N1CCC[C@H]1C(=O)N[C@@H](CCCCN)C(=O)N[C@@H](CCCCN)C(=O)N[C@@H](CCCCN)C(=O)N[C@@H](CCCNC(=N)N)C(=O)N[C@@H](CCCCN)C(=O)N[C@H](C(=O)NCC(=O)NCC(=O)O)C(C)C)NC(=O)CC[C@@H](C)[C@H]1CC[C@H]2[C@@H]3[C@H](O)C[C@@H]4C[C@H](O)CC[C@]4(C)[C@H]3CC[C@]12C)C(=O)NCC(=O)NCC(=O)O", "note": "[(CDCA-C-SV40)2] (I: Chenodeoxycholyl-CGYGPKKKRKVGG-OH / II: Chenodeoxycholyl-CGYGPKKKRKVGG-OH; disulfide I:1-II:1)", "values": [{"measurement": "stability relative to corresponding monomer", "setting": "[2]", "value": "markedly higher stability"}, {"measurement": "cytotoxicity", "setting": "[3]", "value": "potent cytotoxicity"}]}
{"compound": "SV40 NLS: nuclear localization signal from SV40 large T-antigen (SEQ ID NO: 2), tested alone as negative control", "values": [{"measurement": "cytotoxic activity", "setting": "EL4 lymphoma cells; separately, at any of the concentrations tested", "value": "did not exhibit any cytotoxic activity"}]}
{"compound": "CC(C)[C@H](NC(=O)[C@H](CCCCN)NC(=O)[C@H](CCCNC(=N)N)NC(=O)[C@H](CCCCN)NC(=O)[C@H](CCCCN)NC(=O)[C@H](CCCCN)NC(=O)[C@@H]1CCCN1C(=O)CNC(=O)[C@H](Cc1ccc(O)cc1)NC(=O)CNC(=O)[C@H](CS)NC(=O)CC[C@@H](C)[C@H]1CC[C@H]2[C@@H]3[C@H](O)C[C@@H]4C[C@H](O)CC[C@]4(C)[C@H]3C[C@H](O)[C@]12C)C(=O)NCC(=O)NCC(=O)O", "note": "[CA-C-SV40] (Cholyl-CGYGPKKKRKVGG-OH)", "values": [{"measurement": "cytotoxicity of cholic acid-NLS conjugates", "setting": "EL4 lymphoma cells; 190 μM, Annexin-V staining", "value": "notably higher than that of CA-C-GWG-SV40"}, {"measurement": "apoptosis in normal or healthy cells", "setting": "macrophages", "value": "induce apoptosis"}, {"measurement": "apoptosis in normal or healthy cells", "setting": "[4]", "value": "induce apoptosis"}, {"measurement": "apoptosis in normal or healthy cells", "setting": "[5]", "value": "induce apoptosis"}]}
